Patent US10743544B2, “Method for inactivating Cronobacter sakazakii” (priority 2015, dated 2020)
“Also recorded” adds a separate entry of the source.

Assays:
[1] = tested on: Cronobacter sakazakii strains ES45, ES46, ES37, and ES39; test: Tolerance of C. sakazakii to different natural extracts in PIF, plate count (FIG. 1); type: cell-based; conditions: 0.5% in PIF, pH not adjusted, four strains; for growth trend of C. sakazakii (plate count): 37° C., up to 7 hours
Description: (§1) A commercial PIF (Wondersun, Harbin, Hei Longjiang Province, China) was purchased and reconstituted according to the manufacturer's instruction. Briefly, 15 g of the PIF was reconstituted in 100 mL of sterile distilled water. 5 mg/mL TP, malic acid, citric acid or ascorbic acid (VC) was added to the rehydrated PIF, and shaken gently to make sure that it was fully dissolved. A pH meter was used to determine the pH of all the solutions. The initial pH of rehydrated PIF was 6.82 and it dropped to pH 3.62, pH 3.55, pH 4.55 and pH 6.46 after added 5 mg/mL malic acid, citric acid, VC and TP, respectively. The final concentration of the natural extract solutions was 0.5% and the milk powder solutions were packed into different test tubes with 9 ml solution in each tube. Milk powder solution without any natural extract product was used as the control group.
1 mL of 8.0 Log CFU/mL cell suspensions of four C. sakazakii strains were separately added to 9 mL rehydrated PIF with different natural extracts prepared above to obtain final concentrations of approximately 7.0 Log CFU/mL. The cell suspensions with different natural extracts were incubated at 37° C. for 1, 3, 5 and 7 hours, and mixed to make sure that the solutions were homogeneous. After serial dilution with NS, 0.1 mL of appropriately diluted cultures were spread-plated on TSA plates and incubated upside down at 37° C. overnight to observe the growth of Cronobacter sakazakii.
The tolerance of four different ST types of Cronobacter sakazakii to different natural extracts was studied by serial dilution plate count method. The cell suspensions were separately added to PIF containing 0.5% tea polyphenols, 0.5% VC, 0.5% malic acid or 0.5% citric acid. The pH of each solution was measured using a pH meter and the plate count analysis was carried out at different time points of incubation.

[2] = pH of rehydrated PIF after addition of natural extract (pH meter); type: physicochemical; conditions: 5 mg/mL added to rehydrated PIF (initial pH 6.82)
Description: as §1

[3] = tested on: Cronobacter sakazakii strains ES45, ES46, ES37 and ES39; test: Tolerance of C. sakazakii to acidified natural extracts in PIF, pH 3.55 (FIG. 2); type: cell-based; conditions: 0.5% in PIF, pH 3.55 versus unadjusted pH
Description: A commercial PIF (Wondersun, Harbin, Hei Longjiang Province, China) was purchased and reconstituted according to the manufacturer's instruction. Briefly, 15 g of the PIF was reconstituted in 100 mL of sterile distilled water. 5 mg/mL TP was added to the rehydrated PIF and shaken gently to make sure it was fully dissolved. As controls, malic acid, citric acid and VC were dissolved in PIF in the same way as that of TP. A pH meter was used to determine the pH of all solutions. The initial pH of rehydrated PIF was 6.82 and the value of pH dropped to pH 3.62, pH 3.55, pH 4.55 and pH 6.46 after addition of 5 mg/mL malic acid, citric acid, VC and TP, respectively. The final concentration of the natural extract solutions was 0.5% (w/v) and PIF solutions were packed into different test tubes, each tube with 9 mL solution. PIF solution without adding additional substance was used as the blank control group.
In order to eliminate the effect of pH on the growth of Cronobacter sakazakii, it is necessary to adjust the pH for each treatment group to be the same. The pH of all the treatment groups was adjusted to pH 3.55 with 4 M HCl and 4M NaOH, which was the minimum pH of all the treatment solutions. The PIF acidified with HCl was used as the control. 1 mL of 8.0 Log CFU/mL cell suspensions of the four C. sakazakii strains were separately added to 9 mL acidified PIF with different natural extracts. […]

| SMILES | growth trend of C. sakazakii (plate count) [1] | antibacterial effect in PIF [1] | pH of rehydrated PIF after addition [2] | antibacterial/inhibitory effect after acidification compared with before [3] |
| --- | --- | --- | --- | --- |
| O=C1O[C@H]([C@@H](O)CO)C(O)=C1O [VC, ascorbic acid] | slower growth trend | not obvious | 4.55 | stronger antibacterial activity than before the treatment |
| O=C(O)CC(O)(CC(=O)O)C(=O)O [citric acid] | downward trend | some antibacterial effect | 3.55 | not significantly different; also recorded: not significant |
| O=C(O)CC(O)C(=O)O (centres unmarked) [malic acid] | did not change much | not obvious | 3.62 | – |
